Source: paper PMC5951806, “Rapid labelling and covalent inhibition of intracellular native proteins using ligand-directed N-acyl-N-alkyl sulfonamide” (Nature Communications, 2018)

Assays:
[1] = molecular target: T1, Elongation factor 1-alpha 1 (EEF1A1) (Homo sapiens, UniProt P68104); experiment: TMT LC-MSMS of 11-labelled proteins; assay type: cell-based
T1 sequence (P68104 1-462): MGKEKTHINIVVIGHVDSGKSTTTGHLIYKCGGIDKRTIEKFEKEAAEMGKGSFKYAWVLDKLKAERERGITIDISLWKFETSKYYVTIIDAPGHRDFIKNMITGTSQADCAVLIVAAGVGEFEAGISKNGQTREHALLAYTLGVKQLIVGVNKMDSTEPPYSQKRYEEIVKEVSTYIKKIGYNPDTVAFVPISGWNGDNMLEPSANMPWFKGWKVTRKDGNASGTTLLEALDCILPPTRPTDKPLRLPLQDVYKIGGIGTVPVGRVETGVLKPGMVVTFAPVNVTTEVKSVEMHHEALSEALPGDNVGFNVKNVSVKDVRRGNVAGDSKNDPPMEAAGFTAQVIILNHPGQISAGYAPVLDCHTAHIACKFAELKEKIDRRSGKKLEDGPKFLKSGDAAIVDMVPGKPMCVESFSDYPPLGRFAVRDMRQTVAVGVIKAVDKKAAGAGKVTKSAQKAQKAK

peroxiredoxin-1 (PRDX1) = molecular target: T2, peroxiredoxin-1 (PRDX1) (Homo sapiens, UniProt Q06830); experiment: TMT LC-MSMS of 11-labelled proteins; assay type: cell-based
T2 sequence (Q06830 1-199): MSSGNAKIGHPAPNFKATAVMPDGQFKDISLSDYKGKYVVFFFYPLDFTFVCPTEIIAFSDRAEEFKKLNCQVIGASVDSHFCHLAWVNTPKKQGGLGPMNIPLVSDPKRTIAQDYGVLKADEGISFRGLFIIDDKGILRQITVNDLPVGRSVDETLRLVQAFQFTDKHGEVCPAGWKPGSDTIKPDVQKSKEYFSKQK

[2] = sheet Exp1, SKBR3 cells, 11 0.5 µM 3 h vs DMSO
[3] = sheet Exp1, SKBR3 cells, 11 0.5 µM 3 h vs with PU-H71 10 µM
[4] = sheet Merged, SKBR3 cells, 11 0.5 µM 3 h vs DMSO
[5] = sheet Merged, SKBR3 cells, 11 0.5 µM 3 h vs with PU-H71 10 µM

Abundance Ratio: (11) / (11 with PU-H71) ([1]; Exp3, EEF1A1): 0.806 | Abundance Ratio: (11) / (DMSO) ([1]; Exp3, EEF1A1): 4.916 | Abundances (Grouped): 11 ([1]; Exp3, EEF1A1): 720.2 | Abundances (Grouped): 11 with PU-H71 ([1]; Exp3, EEF1A1): 894 | Abundance Ratio: (11) / (DMSO) [1, 2]: 4.039 | Abundance Ratio: (11) / (11 with PU-H71) [1, 3]: 0.803 | Abundance Ratio: (11) / (11 with PU-H71) ([1]; sheet Exp2, EEF1A1): 0.83 | Abundance Ratio: (11) / (DMSO) ([1]; sheet Exp2, EEF1A1): 3.879 | Abundances (Grouped): 11 ([1]; sheet Exp2, EEF1A1): 725.4 | Abundances (Grouped): 11 with PU-H71 ([1]; sheet Exp2, EEF1A1): 874.4 | Abundance Ratio: (11) / (DMSO) [1, 4]: 3.879 | Abundance Ratio: (11) / (11 with PU-H71) [1, 5]: 0.811 | Abundance Ratio: (11) / (11 with PU-H71) (peroxiredoxin-1 (PRDX1); Exp3, PRDX1): 0.822 | Abundance Ratio: (11) / (DMSO) (peroxiredoxin-1 (PRDX1); Exp3, PRDX1): 2.683 | Abundances (Grouped): 11 (peroxiredoxin-1 (PRDX1); Exp3, PRDX1): 295.4 | Abundances (Grouped): 11 with PU-H71 (peroxiredoxin-1 (PRDX1); Exp3, PRDX1): 359.3 | Abundance Ratio: (11) / (DMSO) (peroxiredoxin-1 (PRDX1); [2]): 2.358 | Abundance Ratio: (11) / (11 with PU-H71) (peroxiredoxin-1 (PRDX1); [3]): 0.804 | Abundance Ratio: (11) / (11 with PU-H71) (peroxiredoxin-1 (PRDX1); sheet Exp2, PRDX1): 0.861 | Abundance Ratio: (11) / (DMSO) (peroxiredoxin-1 (PRDX1); sheet Exp2, PRDX1): 2.62 | Abundances (Grouped): 11 (peroxiredoxin-1 (PRDX1); sheet Exp2, PRDX1): 93.8 | Abundances (Grouped): 11 with PU-H71 (peroxiredoxin-1 (PRDX1); sheet Exp2, PRDX1): 109 | Abundance Ratio: (11) / (DMSO) (peroxiredoxin-1 (PRDX1); [4]): 2.219 | Abundance Ratio: (11) / (11 with PU-H71) (peroxiredoxin-1 (PRDX1); [5]): 0.847
Structure (SMILES): CC(=O)Oc1ccc2c(c1)Oc1cc(OC(C)=O)ccc1C21OC(=O)c2cc(C(=O)NCCOCCOCCNC(=O)CCCC(=O)N(CC#N)S(=O)(=O)c3ccc(C(=O)NCCCn4c(Sc5cc6c(cc5I)OCO6)nc5c(N)ncnc54)cc3)ccc21 [compound 11]
